Measured values published in publication PMC8219539 (Journal of Atherosclerosis and Thrombosis, 2020).

Molecular target: S1P receptor 2 (S1P2/EDG-5) (Homo sapiens, UniProt O95136)
Assay: Fura2 intracellular Ca2+ assay
Assay type: cell-based

S1P receptor 2 (S1P2/EDG-5), sequence (O95136 whole entry): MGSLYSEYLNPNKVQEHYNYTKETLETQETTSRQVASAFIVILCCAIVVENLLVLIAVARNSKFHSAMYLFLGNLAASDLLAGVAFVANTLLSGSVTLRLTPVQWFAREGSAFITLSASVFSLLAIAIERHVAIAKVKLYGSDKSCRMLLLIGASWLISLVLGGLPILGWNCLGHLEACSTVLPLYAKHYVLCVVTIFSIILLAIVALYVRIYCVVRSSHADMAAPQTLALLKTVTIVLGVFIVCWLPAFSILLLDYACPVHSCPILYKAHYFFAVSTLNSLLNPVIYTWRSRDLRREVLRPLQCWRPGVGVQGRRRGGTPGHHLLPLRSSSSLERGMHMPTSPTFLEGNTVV

Compound	IC50
Cc1nn(C)c2nc(NNC(=O)Nc3c(Cl)cncc3Cl)cc(C(C)C)c12 [JTE-013]	5.3 nM
ONO-5430514	5.7 nM
